IC50 and k2 data for 7 compounds are collected here from ChEMBL document CHEMBL1135677 (J Med Chem, 2002).

The IC50 is the concentration that inhibits the measured activity by half.

One data set has as its system MCF7. The data set can be described thus: Antiproliferative activity assessed in the MCF-7 human mamma carcinoma using the BrdU. Type of data set: functional, cell-based.
A further data set has as its system LXFL 529. Description: Antiproliferative activity assessed in the LXFL529 human lung carcinoma using the BrdU. It counts as functional, cell-based.
Data set [1] in a line: Antiproliferative activity assessed in the RENCA murine renal cell carcinoma using the BrdU. It counts as functional, cell-based, Mus musculus.
For data set [2], the target named is T1, Albumin (Homo sapiens, UniProt P02768). The data set can be described thus: Second order rate constant after incubation with human serum albumin (HSA) at pH 7.4 in the presence of 5 equiv of myristic acid.
T1 sequence (P02768 whole entry): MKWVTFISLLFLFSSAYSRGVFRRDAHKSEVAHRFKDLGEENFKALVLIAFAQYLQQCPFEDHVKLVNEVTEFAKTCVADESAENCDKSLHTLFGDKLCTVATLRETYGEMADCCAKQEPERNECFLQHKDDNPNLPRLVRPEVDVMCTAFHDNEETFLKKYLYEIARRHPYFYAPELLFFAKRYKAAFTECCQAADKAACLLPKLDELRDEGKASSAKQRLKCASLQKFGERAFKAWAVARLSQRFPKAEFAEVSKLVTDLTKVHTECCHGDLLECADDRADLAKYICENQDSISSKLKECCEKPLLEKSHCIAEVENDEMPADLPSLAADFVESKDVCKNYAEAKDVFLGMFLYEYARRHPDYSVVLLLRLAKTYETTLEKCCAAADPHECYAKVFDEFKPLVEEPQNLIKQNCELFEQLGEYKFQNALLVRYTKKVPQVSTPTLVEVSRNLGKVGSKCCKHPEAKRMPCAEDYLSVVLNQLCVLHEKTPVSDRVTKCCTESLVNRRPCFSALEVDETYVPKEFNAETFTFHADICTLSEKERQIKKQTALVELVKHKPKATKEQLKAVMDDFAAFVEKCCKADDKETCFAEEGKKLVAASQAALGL
For data set [3], the target named is T1, Albumin. Description: Second order rate constant after incubation with human serum albumin (HSA) at pH 7.4 in the absence of myristic acid.

On to `COc1cccc2c1C(=O)c1c(O)c3c(c(O)c1C2=O)C[C@@](O)(C(=O)CO)C[C@@H]3O[C@H]1C[C@H](N)[C@H](O)[C@H](C)O1` [DOXORUBICIN], for which the IC50 in the data set with MCF7 (Homo sapiens, MCF7) is 40 nM; in the data set with LXFL 529 (Homo sapiens, LXFL 529), 40 nM.
With `COc1cccc2c1C(=O)c1c(O)c3c(c(O)c1C2=O)C[C@@](O)(/C(CO)=N/NC(=O)CCCCCN1C(=O)C=CC1=O)C[C@]3(C)COC1C[C@H](N)[C@](C)(O)[C@H](C)O1.Cl` (stereo in doubt; 3), the IC50 turned out to be 1100 nM in the data set on MCF7 (mcf7), 1000 nM in data set [1] and 500 nM in the data set with LXFL 529 (lxfl 529). The k2 turned out to be 37.5 M⁻¹ s⁻¹ on Albumin [2] and 17.33 M⁻¹ s⁻¹ on Albumin [3].
Turning to `COc1cccc2c1C(=O)c1c(O)c3c(c(O)c1C2=O)C[C@@](O)(/C(CO)=N/NC(=O)CCCCCN1C(=O)C=CC1=O)C[C@]3(C)COC1C[C@H](N)[C@](C)(O)[C@H](C)O1` (stereo in doubt), the IC50 with MCF7 (Homo sapiens, MCF7) was 1000 nM; in data set [1] (Mus musculus), 900 nM; in the data set with LXFL 529 (Homo sapiens, LXFL 529), 400 nM.
On to `COc1cccc2c1C(=O)c1c(O)c3c(c(O)c1C2=O)C[C@@](O)(/C(CO)=N/NC(=O)CCCN1C(=O)C=CC1=O)C[C@]3(C)COC1C[C@H](N)[C@](C)(O)[C@H](C)O1.Cl` (some centres undefined), for which the k2 was 19 M⁻¹ s⁻¹ at Albumin [2] and 25.17 M⁻¹ s⁻¹ on Albumin [3].
`COc1cccc2c1C(=O)c1c(O)c3c(c(O)c1C2=O)C[C@@](O)(/C(CO)=N/NC(=O)CCCCCN1C(=O)CCC1=O)C[C@]3(C)COC1C[C@H](N)[C@](C)(O)[C@H](C)O1` (some centres undefined): the IC50 with MCF7 (Homo sapiens, MCF7) amounted to 1100 nM; in data set [1] (Mus musculus), 700 nM; in the data set with LXFL 529 (Homo sapiens, LXFL 529), 500 nM.
Take `COc1cccc2c1C(=O)c1c(O)c3c(c(O)c1C2=O)C[C@@](O)(/C(CO)=N/NC(=O)CCCCCCCN1C(=O)C=CC1=O)C[C@]3(C)COC1C[C@H](N)[C@](C)(O)[C@H](C)O1.Cl` (some centres undefined): the k2 was 16 M⁻¹ s⁻¹ on Albumin [2] and 10 M⁻¹ s⁻¹ at Albumin [3].
As for `COc1cccc2c1C(=O)c1c(O)c3c(c(O)c1C2=O)C[C@@](O)(/C(CO)=N/NC(=O)CCN1C(=O)C=CC1=O)C[C@]3(C)COC1C[C@H](N)[C@](C)(O)[C@H](C)O1.Cl` (some centres undefined), the k2 on Albumin [2] is 17.83 M⁻¹ s⁻¹; at Albumin [3], 23.83 M⁻¹ s⁻¹.
